Molecules are shown by their SMILES.

T1 sequence (P21453 whole entry): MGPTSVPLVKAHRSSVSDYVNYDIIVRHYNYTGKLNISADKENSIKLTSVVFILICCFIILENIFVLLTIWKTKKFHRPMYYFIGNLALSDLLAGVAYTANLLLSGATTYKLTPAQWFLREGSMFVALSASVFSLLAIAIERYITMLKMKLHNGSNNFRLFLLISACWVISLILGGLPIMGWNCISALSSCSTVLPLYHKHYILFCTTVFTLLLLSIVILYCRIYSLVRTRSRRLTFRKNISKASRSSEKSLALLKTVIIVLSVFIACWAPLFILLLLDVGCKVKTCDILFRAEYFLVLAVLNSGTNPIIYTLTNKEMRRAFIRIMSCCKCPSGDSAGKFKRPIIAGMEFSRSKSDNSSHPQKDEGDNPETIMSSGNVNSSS

One test concerns the target T1, human Edg-1 (S1P1) (Homo sapiens, UniProt P21453).
T1 construct: expressed in transfected cells; host or cells: HEK-293
Briefly: S1P1 binding assay: inhibition of [33P]-S1P binding to membrane fraction of HEK-293 cells transferred with the human Edg-1 (S1P1) gene. The following applies: [33P]-S1P 0.1 nM, human Edg-1 (S1P1) HEK-293 membrane fraction, 1 h at 30° C.; read-out: IC50 (concentration at which binding in the absence of the test compound was inhibited by 50%). How it is done: The membrane fraction was obtained by treating the cells with a solubilizing buffer (1 mM Tris/HCl, pH 7.2) for 10 minutes on ice, centrifuging at 1000×g for 5 minutes to remove insoluble fractions, and then centrifuging at 40000×g for 30 minutes at 4° C. The resulting membrane fraction was dissolved in a binding buffer (20 mM Tris-HCl, pH 7.4, 100 mM NaCl, 15 mM NaF, 2 mM deoxypyridoxine, 4 mg/mL fatty acid-free BSA), and then [^33P]-S1P (manufactured by ARC, final concentration 0.1 nM) and a DMSO solution (final concentration of the compound 10^−5M, final concentration of DMSO 0.1%) of the test compound were added. Thereafter, the mixture was stirred and then treated for one hour at 30° C. Using a harvester, the membrane fraction was harvested onto unifilter-96 GF/C filter (manufactured by Perkin Elmer), washing was carried out four times with the binding buffer, and the filter was dried. Twenty five μL Microscint 0 (manufactured by Perkin Elmer) was added, and radioactivity was measured using Top Count NXT (manufactured by Packard) to calculate the amount (A) of [^33P]-S1P bound to the membrane fraction at the time when the compound was added.
The same procedure was carried out in the absence of the test compound, and the amount (B) of [^33P]-S1P bound was calculated. Further, the same procedure was carried out in the absence of the test compound by use of HEK-293 cells to which no Edg-1 (S1P1) gene was introduced, and the background amount (C) of [^33P]-S1P bound was calculated.
Inhibition rate (%)=[1−(A−C)/(B−C)]×100
Further, concentrations (IC50) at the time when binding in the absence of the test compound was inhibited by 50% were calculated. The membrane system binding assay was carried out in the presence of test compounds with various concentrations, and the Edg-1 (S1P1) binding inhibition rates were calculated using the equation above. Then, IC50 values were calculated using Origin (Lightstone Corp.), a software for data analysis.
Take `CCn1c(Oc2cccc(N3CCN(C)CC3)c2)nnc1[C@@H](C)NS(=O)(=O)c1ccc(Cl)c(Cl)c1` [Compound 45, 3,4-Dichloro-N-((R)-1-[4-ethyl-5-[3-(4-methyl-piperazin-1-yl)-phenoxy]-4H-[1,2,4]triazol-3-yl]-ethyl)-benzenesulfonamide]: the IC50 stood at 4.2 nM.

On to `CCn1c(Nc2ccc(C)cc2)nnc1[C@@H](C)NS(=O)(=O)c1ccc(Cl)c(Cl)c1` [Compound 61, N-[(1R)-1-(4-Ethyl-5(4-methylphenylamino)-4H-[1,2,4]triazol-3-yl)ethyl]3,4-dichlorobenzenesulfonamide], for which the IC50 was 39 nM. With `CCn1c(Oc2cccc(N3CCC4(CC3)OCCO4)c2)nnc1[C@@H](C)NS(=O)(=O)c1ccc(Cl)c(Cl)c1` [Compound 87, 3,4-Dichloro-N-((R)-1-[5-[3-(1,4-dioxa-8-aza-spiro[4.5]decan-8-yl)-phenoxy]-4-ethyl-4H-[1,2,4]triazol-3-yl]-ethyl)-benzenesulfonamide], the IC50 was at most 10 nM. Consider `CCn1c(Oc2cccc(N3CCC(=O)CC3)c2)nnc1[C@@H](C)NS(=O)(=O)c1ccc(Cl)c(Cl)c1` [Compound 88, 3,4-Dichloro-N-((R)-1-[4-ethyl-5-[3-(4-oxo-piperidin-1-yl)-phenoxy]-4H-[1,2,4]triazol-3-yl]-ethyl)-benzenesulfonamide], for which the IC50 stood at 5.4 nM. Still for that read-out and setting: the result for `CCn1c(Oc2cccc(N(CCOC)CCOC)c2)nnc1[C@@H](C)NS(=O)(=O)c1ccc(Cl)c(Cl)c1` [Compound 100] reads 18.5 nM. As to `CCn1c(Oc2ccc3cc[nH]c3c2)nnc1[C@@H](C)NS(=O)(=O)c1ccc2c(Cl)cccc2c1` [Compound 151], the IC50 is at most 10 nM.

The same test, now with this note: test compound at 10 μM; inhibition of [33P]-S1P binding to the membrane fraction of HEK-293 cells expressing human Edg-1 (S1P1).
Broadly, the inhibition is the drop in the measured response relative to a control, in per cent. Turning to `CCn1c(Oc2cccc(N3CCN(C)CC3)c2)nnc1[C@@H](C)NS(=O)(=O)c1ccc(Cl)c(Cl)c1` [Compound 45, 3,4-Dichloro-N-((R)-1-[4-ethyl-5-[3-(4-methyl-piperazin-1-yl)-phenoxy]-4H-[1,2,4]triazol-3-yl]-ethyl)-benzenesulfonamide], the inhibition at 10 µM was 106%.

In the case of `CCn1c(Sc2ccc(C)cc2)nnc1[C@@H](C)NS(=O)(=O)c1ccc(Cl)c(Cl)c1` [Compound 55, 3,4-Dichloro-N-[(R)-1-(4-ethyl-5(4-methylbenzenesulfanyl)-4H-[1,2,4]triazol-3-yl)-ethyl]-benzenesulfonamide], the inhibition at 10 µM was 80.6%.

`CCn1c(Cc2ccc(C)cc2)nnc1[C@@H](C)NS(=O)(=O)c1ccc(Cl)c(Cl)c1` [Compound 56, 3,4-Dichloro-N-[(R)-1-[4-ethyl-5(4-methylbenzyl)-4H-[1,2,4]triazol-3-yl]-ethyl]-benzenesulfonamide]: the inhibition at 10 µM was 88.3%. The same measure, in the same setting: the result for `CCn1c(Nc2ccc(C)cc2)nnc1[C@@H](C)NS(=O)(=O)c1ccc(Cl)c(Cl)c1` [Compound 61, N-[(1R)-1-(4-Ethyl-5(4-methylphenylamino)-4H-[1,2,4]triazol-3-yl)ethyl]3,4-dichlorobenzenesulfonamide] reads 102%; that for `CCn1c(Oc2cccc(N3CCC4(CC3)OCCO4)c2)nnc1[C@@H](C)NS(=O)(=O)c1ccc(Cl)c(Cl)c1` [Compound 87, 3,4-Dichloro-N-((R)-1-[5-[3-(1,4-dioxa-8-aza-spiro[4.5]decan-8-yl)-phenoxy]-4-ethyl-4H-[1,2,4]triazol-3-yl]-ethyl)-benzenesulfonamide], 99.9%; that for `CCn1c(Oc2cccc(N3CCC(=O)CC3)c2)nnc1[C@@H](C)NS(=O)(=O)c1ccc(Cl)c(Cl)c1` [Compound 88, 3,4-Dichloro-N-((R)-1-[4-ethyl-5-[3-(4-oxo-piperidin-1-yl)-phenoxy]-4H-[1,2,4]triazol-3-yl]-ethyl)-benzenesulfonamide], 99.5%. Still for that read-out and setting: the result for `CCn1c(Oc2cccc(N(CCOC)CCOC)c2)nnc1[C@@H](C)NS(=O)(=O)c1ccc(Cl)c(Cl)c1` [Compound 100] reads 110%; that for `CCn1c(Oc2ccc(F)cc2)nnc1[C@@H](C)N(C)S(=O)(=O)c1ccc(Cl)c(Cl)c1` [Compound 115, 3,4-Dichloro-N-[(R)-1-[4-ethyl-5-(4-fluorophenoxy)-4H-[1,2,4]triazol-3-yl]-ethyl]-N-methyl-benzenesulfonamide], 81.8%. In the case of `CCn1c(Oc2ccc(F)cc2)nnc1[C@@H](C)NS(=O)(=O)c1ccc(C)c(Cl)c1` [Compound 127], the inhibition at 10 µM was determined as 94.4%. Same read-out and setting: the result for `CCn1c(Oc2ccc(F)cc2)nnc1[C@@H](C)NS(=O)(=O)c1ccc(C(C)=O)cc1` [Compound 154] reads 92.3%; that for `CCn1c(Oc2ccc(F)cc2)nnc1[C@@H](C)NS(=O)(=O)c1ccccc1` [Compound 155], 59.9%; that for `CCn1c(Oc2ccc(F)cc2)nnc1[C@@H](C)NS(=O)(=O)c1ccc(Br)cc1` [Compound 156], 107%. Regarding `CCn1c(Oc2ccc(F)cc2)nnc1[C@@H](C)NS(=O)(=O)c1ccc(C(C)(C)C)cc1` [Compound 157], the inhibition at 10 µM was 74.6%. Same read-out and setting: the result for `CCn1c(Oc2ccc(F)cc2)nnc1[C@@H](C)NS(=O)(=O)c1cccc(Br)c1` [Compound 160] reads 96.9%; that for `CCn1c(Oc2ccc(F)cc2)nnc1[C@@H](C)NS(=O)(=O)c1ccc(Cl)cc1` [Compound 162], 109%; that for `CCn1c(Oc2ccc(F)cc2)nnc1[C@@H](C)NS(=O)(=O)c1cccc(C#N)c1` [Compound 165], 72.9%. Regarding `CCn1c(Oc2ccc(F)cc2)nnc1[C@@H](C)NS(=O)(=O)c1cc(C)c(Cl)cc1C` [Compound 167], the inhibition at 10 µM was 113%.

In the case of `CCn1c(Oc2ccc(F)cc2)nnc1[C@@H](C)NS(=O)(=O)c1cc(Cl)ccc1Cl` [Compound 168], the inhibition at 10 µM worked out at 68.4%. Consider `CCn1c(Oc2ccc(F)cc2)nnc1[C@@H](C)NS(=O)(=O)c1ccc(OC)c(OC)c1` [Compound 170], for which the inhibition at 10 µM amounted to 76%. On the same count and under the same terms, the result for `CCc1ccc(S(=O)(=O)N[C@H](C)c2nnc(Oc3ccc(F)cc3)n2CC)cc1` [Compound 172] reads 92%; that for `CCn1c(Oc2ccc(F)cc2)nnc1[C@@H](C)NS(=O)(=O)c1ccc(F)cc1` [Compound 173], 97.2%. On the same count and under the same terms, the result for `CCn1c(Oc2ccc(F)cc2)nnc1C(C)(C)NS(=O)(=O)c1c(C)cc(C)cc1C` [Compound 174] reads 52.5%. The same measure, in the same setting: the result for `CCn1c(Oc2ccc(F)cc2)nnc1[C@@H](C)NS(=O)(=O)c1ccc(OC)cc1` [Compound 175, N-[(R)-1-[4-Ethyl-5-(4-fluorophenoxy)-4H-[1,2,4]triazol-3-yl]-ethyl]-4-methoxybenzenesulfonamide] reads 103%. For the compound `CCn1c(Oc2ccc(F)cc2)nnc1[C@@H](C)NS(=O)(=O)c1ccc(S(C)(=O)=O)cc1` [Compound 177], the inhibition at 10 µM is 55.3%. Same read-out and setting: the result for `CCn1c(Oc2ccc(F)cc2)nnc1[C@@H](C)NS(=O)(=O)c1cccc2ccccc12` [Compound 179] reads 83%; that for `CCn1c(Oc2ccc(F)cc2)nnc1[C@@H](C)NS(=O)(=O)CCc1cccc2ccccc12` [Compound 180], 94.6%; that for `CCn1c(Oc2ccc(F)cc2)nnc1[C@@H](C)NS(=O)(=O)c1c(F)c(F)c(F)c(F)c1F` [Compound 181], 50.4%. On to `CCn1c(Oc2ccc(F)cc2)nnc1[C@@H](C)NS(=O)(=O)c1ccc(I)cc1` [Compound 182], for which the inhibition at 10 µM came to 109%.

Take `CCn1c(Oc2ccc(F)cc2)nnc1[C@@H](C)NS(=O)(=O)/C=C/c1ccccc1` [Compound 183]: the inhibition at 10 µM turned out to be 92.8%.

As to `CCn1c(Oc2ccc(F)cc2)nnc1[C@@H](C)NS(=O)(=O)c1cc(Cl)c(Cl)cc1Cl` [Compound 184], the inhibition at 10 µM came to 97.3%. `CCn1c(Oc2ccc(F)cc2)nnc1[C@@H](C)NS(=O)(=O)c1ccc(C)cc1` [Compound 186]: the inhibition at 10 µM was found to be 86.8%. For `CCn1c(Oc2ccc(F)cc2)nnc1[C@@H](C)NS(=O)(=O)c1cccc(C(F)(F)F)c1` [Compound 188], the inhibition at 10 µM was determined as 107%. For the compound `CCn1c(Oc2ccc(F)cc2)nnc1[C@@H](C)NS(=O)(=O)c1ccccc1C` [Compound 189], the inhibition at 10 µM came out at 99.7%. With `CCn1c(Oc2ccc(F)cc2)nnc1[C@@H](C)NS(=O)(=O)c1ccc(OC(F)(F)F)cc1` [Compound 190], the inhibition at 10 µM was found to be 87.9%. Same read-out and setting: the result for `C=Cc1ccc(S(=O)(=O)N[C@H](C)c2nnc(Oc3ccc(F)cc3)n2CC)cc1` [Compound 191] reads 96.9%; that for `CCn1c(Oc2ccc(F)cc2)nnc1[C@@H](C)NS(=O)(=O)c1cccc(C)c1` [Compound 192], 95.2%; that for `CCn1c(Oc2ccc(F)cc2)nnc1[C@@H](C)NS(=O)(=O)c1ccc2c(c1)CN(C(=O)C(F)(F)F)CC2` [Compound 194], 80.7%. Regarding `CCn1c(Oc2ccc(F)cc2)nnc1[C@@H](C)NS(=O)(=O)c1cc(C)ccc1C` [Compound 195], the inhibition at 10 µM was 90.1%. The same measure, in the same setting: the result for `CCn1c(Oc2ccc(F)cc2)nnc1[C@@H](C)NS(=O)(=O)c1ccc(-c2csnn2)s1` [Compound 196] reads 65.6%. On the same count and under the same terms, the result for `CCn1c(Oc2ccc(F)cc2)nnc1[C@@H](C)NS(=O)(=O)c1ccc(C(=O)OC)n1C` [Compound 201] reads 84.3%; that for `CCCc1ccc(S(=O)(=O)N[C@H](C)c2nnc(Oc3ccc(F)cc3)n2CC)cc1` [Compound 206], 85.4%; that for `CCn1c(Oc2ccc(F)cc2)nnc1[C@@H](C)NS(=O)(=O)c1ccc(Cl)c(Cl)c1Cl` [Compound 207], 108%. The same measure, in the same setting: the result for `CCn1c(Oc2ccc(F)cc2)nnc1C(C)(C)NS(=O)(=O)c1c(C)c(C)cc(C)c1C` [Compound 208] reads 80.2%; that for `CCn1c(Oc2ccc(F)cc2)nnc1[C@@H](C)NS(=O)(=O)c1cccc(Cl)c1Cl` [Compound 209], 91.4%. With `CCn1c(Oc2ccc(F)cc2)nnc1[C@@H](C)NS(=O)(=O)c1cc(C(F)(F)F)cc(C(F)(F)F)c1` [Compound 212], the inhibition at 10 µM came out at 69.7%.

Source of the values: US8022091B2, “Triazole derivative” (Taisho Pharmaceutical Co., Ltd., priority 2006, dated 2011).
